In assay [1] the test system is Carbapenem-resistant Enterobacteriaceae (CRE) clinical isolates. Put plainly: Susceptibility testing, CRE clinical isolates. It is filed as cell-based. The following applies: 50 isolates.
The subject of assay [2] is Pa isolates. The experiment in a line: Time kill assays against 12 isolates. It is filed as cell-based, Pseudomonas aeruginosa. Particulars: tested alone, FOS-S isolates; >3-log10 reduction at 12 and/or 24 hours. How it is done:
Forty-three Pa isolates (recovered from unique patients) were selected for testing. […] Interactions between FOS and other agents were determined by double disc testing on Mueller Hinton agar. Discs containing 300 μg FOS and 50 G6P were used, along with commercially available Kirby Bauer discs for other agents. Intravenous FOS MIC breakpoints are not established. […] Time kill assays against 12 isolates were performed for FOS, CAZ-AVI, CFT-TAZ and PIP-TAZ (alone, and each agent in combination with FOS) at the respective MIC (or breakpoint MIC for resistant isolates). Bactericidal activity during time-kills was defined as >3-log10 reduction at 12 and/or 24 hours, compared to starting inoculum. Synergy during time-kills was defined as >2-log10 reduction at 12 and/or 24 hours, compared to best single agent alone.

Assay [3] deals with ESBL-producing K. pneumoniae isolate. Put plainly: Time-kill kinetic analysis. It counts as cell-based, Klebsiella pneumoniae. The following applies: CAZ ¼ and 1×MIC, by 4-8 h. As for the experimental part:
Broth microdilution for FOS (Mueller-Hinton broth supplemented with 25 μg/mL glucose-6-phosphate) and comparators was performed before performing TKK. TKK employed MIC multiples for FOS, and ¼ and 1×MIC of select comparators, and combinations of FOS and comparator. TKK were sampled for colony counts at T0, T2, T4, T8 and T24 hours (h). Two Klebsiella pneumoniae isolates (one KPC and one ESBL), two Pseudomonas aeruginosa isolates (non-MDR), and one Acinetobacter baumannii isolate (MDR) were tested.

Data on seven compounds can be found in US11129840B2, “Methods for identifying novel dosing regimens” (Zavante Therapeutics, Inc., priority 2017, dated 2021).

In turn, ceftazidime-avibactam [C-A] yielded a Non-susceptiblity rate in assay [1] of 6%. Further, in assay [2], the “% of isolates with bactericidal activity” value amounted to 8%.
In the same order, the values of Piperacillin-tazobactam [PTZ] are 96% and 8%.
For the compound `CC(C)(O/N=C(\C(=O)N[C@@H]1C(=O)N2C(C(=O)[O-])=C(C[n+]3ccccc3)CS[C@H]12)c1csc(N)n1)C(=O)O` [CAZ, ceftazidime], the “decrease in CFU” value in assay [3] was 0.9-2.1 log10 CFU. This compound displayed a Non-susceptiblity rate in assay [1] of 92%.
Gentamicin: in assay [1], the Non-susceptiblity rate turned out to be 54%.
Compound `C[C@@H](O)[C@H]1C(=O)N2C(C(=O)O)=C(SCCN=CN)C[C@H]12` [IMP, Imipenem] returned a Non-susceptiblity rate in assay [1] of 86%.
Take ceftolozane-tazobactam [C-T]: the Non-susceptiblity rate in assay [1] was 43%. Also, the “% of isolates with bactericidal activity” value in assay [2] is recorded as 8%.
As for `C[C@@H](O)[C@H]1C(=O)N2C(C(=O)O)=C(S[C@@H]3CN[C@H](C(=O)N(C)C)C3)[C@H](C)[C@H]12` [MEM, Meropenem], the Non-susceptiblity rate in assay [1] is 82%.
